Like-named read-outs stand apart in the source and are kept apart here.
Columns and labels:
[1] = pH 7.2 and 23° C.; literature reference; cited from earlier work
[2] = Decay kinetics of nitrone-superoxide adducts (EPR, riboflavin-light system); type: physicochemical; conditions: pH 7.2 and 23° C.; this work
Procedure: Decay Kinetics In a typical decay kinetic study, 50 μL solution containing 25 mM of the nitrone and 100 μM riboflavin was irradiated for 3 min in the cavity. […] All data were the average of 3 or more measurements.

[3] = Partition coefficient n-octanol/water (buffer); type: physicochemical; conditions: for Kp (n-octanol/water): pH 7.2, shaken for 2 hrs at 37° C.
[4] = value of the competitor DEPMPO used as basis of the calculation; cited from earlier work
[5] = Spin trapping of radicals detected by EPR spectroscopy; conditions: hydroxyl, superoxide, C-centered, sulfite, and tert-butoxyl radicals
Procedure: Miscellaneous Spin Trapping Studies Fenton reaction system. A 50 μL 0.1 M phosphate buffer solution containing 30 mM AMPO, 1% H2O2 and 65 mM FeSO4 was transferred to a 50 μL capillary tube and EPR spectrum of the hydroxyl adduct was recorded over 5 min time period.
Trapping of SO3^•−, CO2^•− and CH3.CHOH radicals. 50 μL 0.1 M phosphate buffer solution containing 30 mM AMPO, 1% H2O2 and 100 mM of the respective radical source NaHCO2, Na2SO3, or ethanol with 65 mM freshly prepared FeSO4. The mixture was then transferred to 50 μL capillary tube and EPR spectrum of the adduct was recorded over a 5 min time period.
Trapping of GS. and t-BuO. radicals. 50 μL 0.1 M phosphate buffer solution containing 30 mM AMPO and 100 mM GSSG or (CH3)3CO—OC(CH3)3. The mixture was then transferred to 50 μL capillary tube and the radicals were generated by UV photolysis. EPR spectrum of the adduct was recorded over a 5 min time period.
(§1) Trapping of O2^•−. Typical O2^•− trapping experiments utilized the riboflavin-light system as described in the Kinetics section. An alternative O2^•− generating system used a solution of 0.4 mM xanthine and 0.5 unit/mL xanthine oxidase, or 10 nM PMA and 8×10^5 neutrophil cells in 25 mM AMPO. Spectra were acquired over a period of 15 min.

[6] = Rate of superoxide radical trapping by competitive trapping versus DEPMPO (EPR); conditions: based on kDEPMPO=58 M^−1 s^−1
Procedure: The nitrone 5-carbamoyl-5-methyl-1-pyrroline N-oxide (AMPO) was successfully synthesized and characterized. […] Resulting spin adducts for each of these radicals gave unique spectral profiles. […] Theoretical analyses using density functional theory calculations at the B3LYP/6-31=G**/B3LYP6-31G* level were performed on AMPO and its corresponding suproxide product. Calculations predicted the presence of intramolecular H-bonding in both AMPO and its superoxide adduct, and these interactions were further confirmed by an X-ray structure (in the case of AMPO) of a novel and the amido nitrone compound 2-amino-5-carbamoyl-5-methyl-1-pyrroline N-oxide (NH2-AMPO).
as §1

Kp (n-octanol/water) [3]	SMILES	kl /10^−4s^−1 (first order decay of nitrone-superoxide adduct) [1]	t1/2/min, first order approximation half-life of nitrone-superoxide adduct [1]	kl /10^−4s^−1 (first order decay of nitrone-superoxide adduct) [2]	Rate of superoxide radical trapping (k), reference value [4]	Spin trapping of radicals by EPR [5]	partition coefficient in an n-octanol/buffer system (comparison in words) ([3]; n-octanol/buffer system)	Rate of superoxide radical trapping (k) [6]
0.03	CC1(C(N)=O)CCC=[N+]1[O-] (stereo not shown) [AMPO, 5-carbamoyl-5-methyl-1-pyrroline N-oxide]			14.0 ± 1.2 10^−4s^−1		has been demonstrated	comparable value to those of DMPO and DEPMPO	38 M⁻¹ s⁻¹
0.06	CC1(C)CCC=[N+]1[O-] [DMPO]	129.0 10^−4s^−1	0.9 min					
0.33	CCOC(=O)C1(C)CCC=[N+]1[O-] (stereo not shown) [EMPO, 5-ethoxycarbonyl-5-methyl-1-pyrroline N-oxide]			11.6 ± 0.5 10^−4s^−1				44 M⁻¹ s⁻¹

SMILES	Kp (n-octanol/water) [3]	kl /10^−4s^−1 (first order decay of nitrone-superoxide adduct) [1]	t1/2/min, first order approximation half-life of nitrone-superoxide adduct [1]	kl /10^−4s^−1 (first order decay of nitrone-superoxide adduct) [2]	Rate of superoxide radical trapping (k), reference value [4]	Spin trapping of radicals by EPR [5]	partition coefficient in an n-octanol/buffer system (comparison in words) ([3]; n-octanol/buffer system)	Rate of superoxide radical trapping (k) [6]
CCOP(=O)(OCC)C1(C)CCC=[N+]1[O-] (stereo not shown) [DEPMPO, 5-diethoxyphosphoryl-5-methyl-1-pyrroline N-oxide]	0.16	8.13 10^−4s^−1	14.2 min	7.5 ± 0.7 10^−4s^−1	58 M⁻¹ s⁻¹			

From patent US7598400B2, “AMPO spin traps” (The Ohio State University Research Foundation, priority 2004, dated 2009)
